Experimental data taken from US5081122A, “Antiglaucoma compositions containing 4-arylcarbonyl-1-(4-morpholinyl)-lower-alkyl)-1H-indoles and method of use thereof” (Sterling Drug Inc., priority 1990, dated 1992).
Where a name gives a salt, the structure may show the parent alone.

Tests used:
[1] = target: T1, cannabinoid receptor binding sites (CP 55940 binding sites) (Rattus norvegicus, UniProt P20272); settings: result in words, literature (Devane et al.), radio-labelled CP 55940; natural and synthetic cannabinoids; cited from earlier work
T1 construct: from tissue; host or cells: rat brain membranes (inferred from the cited Devane et al. 1988)

cannabinoid receptor = target: T2, cannabinoid receptor (Mus musculus, UniProt P47746); test: mouse vas deferens (MVD) test, inhibition of contractions in vitro; assay type: cell-based; settings: considered active at IC50 of 5.0 μM or less, read-out: MVD IC50 (inhibitory concentration which produces 50% of the maximum response)
T2 construct: mouse vasa deferentia (MVD) preparation in vitro; from tissue; host or cells: mouse vas deferens
Text: (§1) Med. Assoc. 217, 1392 (1971)]. […] Opth. 7, 921-923 (1975); Green and Pederson, Effect of delta-9 Tetrahydrocannabinol on Aqueous Dynamics and Ciliary Body Permeability in the Rabbit Eye., Exptl. Eye Research 15, 499-507 (1973); Colasanti, Craig and Allara, Intraocular Pressure, Ocular Toxicity and Neurotoxicity after Administration of Cannabinol or Cannabigerol, Exptl. Eye Research 39, 252-259 (1984)]. Similarly, synthetic cannabinoids also reduce intraocular pressure [Green, Symunds, Oliver and Elijah, Intraocular Pressure Following Systemic Administration of Cannabinoids., Curr. Eye Research 2, 247-253 (1982); Tiedeman, Shields, Weber, Crow, Coccetto, Harris and Howes, Ophthalmology, 88, 270-277 (1981); Colasanti et al., supra]. […] 34, 605-613 (1988)]. Natural and synthetic cannabinoids and representative examples of the compounds of the present invention, bind to CP 55940 binding sites. […] It is believed that agonist activity at the cannabinoid receptor mediates the anti-glaucoma actions of cannabinoids, and that agonist activity at this receptor correlates with ocular pressure lowering actions in man.
The 3-R3 -4-arylcarbonyl-1-[(4-morpholinyl)-lower-alkyl]-1H-indoles of formula I were tested in the mouse vas deferens test and the CP 55490 binding assay. The results, expressed as the IC50 in μM (the inhibitory concentration which produces 50% of the maximum response), are given in the following table, the compounds being identified by the example number above where their preparations are described.

[2] = target: T1, cannabinoid receptor binding sites (CP 55940 binding sites); test: CP 55940 binding assay (given "CP 55490 [sic] binding assay" in the source)
Text: as §1
The 3-R3 -4-arylcarbonyl-1-[(4-morpholinyl)-lower-alkyl]-1H-indoles of formula I were tested in the mouse vas deferens test and the CP 55490 binding assay. […]

intraocular pressure = settings: topical application or systemic injection; literature; cited from earlier work

T1 sequence (P20272 whole entry): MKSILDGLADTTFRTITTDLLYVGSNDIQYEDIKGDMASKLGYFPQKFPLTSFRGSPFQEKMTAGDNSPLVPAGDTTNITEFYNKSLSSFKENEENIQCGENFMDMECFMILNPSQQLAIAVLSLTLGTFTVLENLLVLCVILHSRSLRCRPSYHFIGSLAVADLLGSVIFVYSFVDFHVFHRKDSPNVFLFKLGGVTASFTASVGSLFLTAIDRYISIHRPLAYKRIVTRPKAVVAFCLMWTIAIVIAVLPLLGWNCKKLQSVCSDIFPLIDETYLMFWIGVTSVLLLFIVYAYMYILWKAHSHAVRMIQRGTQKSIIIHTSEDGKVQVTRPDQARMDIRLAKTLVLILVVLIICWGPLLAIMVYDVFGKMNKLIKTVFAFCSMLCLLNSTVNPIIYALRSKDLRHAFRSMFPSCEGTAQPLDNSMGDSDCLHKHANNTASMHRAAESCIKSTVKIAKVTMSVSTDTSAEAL
T2 sequence (P47746 whole entry): as the sequence (P20272 whole entry) above, with E95D counted along it

Row | SMILES | IC50 (cannabinoid receptor) [nM] | further results
1 | CCCCCCC(C)(C)c1ccc([C@@H]2C[C@H](O)CC[C@H]2CCCO)c(O)c1 [CP 55940, 4-(1,1-dimethylheptyl)-2,3'-dihydroxy-6'alpha-(3-hydroxypropyl)-1',2',3',4',5',6'-hexahydrobiphenyl] |  | binding to CP 55940 binding sites / cannabinoid receptor [1]: binds in a specific and saturable manner
2 | COc1ccc(C(=O)c2cccc3c2c(C)cn3CCN2CCOCC2)cc1 [Example 1E, 4-(4-methoxybenzoyl)-3-methyl-1-[2-(4-morpholinyl)ethyl)-1H-indole hydrochloride] | 5000 | 
3 | COc1ccc(C(=O)c2cccc3c2ccn3CCCN2CCOCC2)cc1 [Example 1B, 4-(4-methoxybenzoyl)-1-[3-(4-morpholinyl)propyl]-1H-indole hydrochloride] | 33 | 
4 | COc1ccc(C(=O)c2cccc3c2ccn3CCN2CCOCC2)cc1 [Example 1A, 4-(4-methoxybenzoyl)-1-[2-(4-morpholinyl)ethyl]-1H-indole hydrochloride] | 76 | IC50 [2]: 444 nM
5 | CCCCCc1cc(O)c2c(c1)OC(C)(C)C1CCC(C)=CC21 (single isomer, unassigned) [delta-9 tetrahydrocannabinol] |  | intraocular pressure (intraocular pressure): reduces intraocular pressure
6 | O=C(c1ccc2ccccc2c1)c1cccc2c1ccn2CCN1CCOCC1 [Example 1D, 4-(2-naphthylcarbonyl)-1-[2-(4-morpholinyl)ethyl]-1H-indolehydrochloride] | 163 | IC50 [2]: 363 nM
7 | O=C(c1cccc2ccccc12)c1cccc2c1ccn2CCN1CCOCC1 [Example 1C, 1-[2-(4-morpholinyl)ethyl]-4-(1-naphthylcarbonyl)-1H-indole p-toluenesulfonate hydrate 3:1] | 3 | 
